The test system of test [1] is E. coli IH3080. As to the kind of experiment: Sensitization to rifampin: well diffusion growth inhibition on LB plates containing rifampin. Format: cell-based, Escherichia coli. As for the experimental part:
(§1) From an overnight-grown culture of IH3080 on LB agar, a suspension of approx. 10^8 cells/ml was prepared in 0.9% NaCl. Aliquots of this suspension were then pipetted on the agar plates and the plates were gently shaken to spread the suspension evenly on the entire surface of the plate. Thereafter, the unabsorbed part of the suspension was removed by using a Pasteur pipette. After the surface had dried, small wells (diameter, 2 mm) were drilled on the plates (five wells per plate) by using a sterile sharp-edged narrow metal tube, single-use pipette tip, and vacuum suction. […] Controls included 0.9% NaCl solution without the compound to be tested. The plates were then incubated for 18 h at 37° C. whereafter the diameters of growth inhibition zones around each well were measured; the diameter of the well itself was not reduced. Finally, the diameters were converted to surface areas of growth inhibition (in square mm).

Test [2] concerns E. coli IH3080 (K1:O18). Nature of the test: Well diffusion growth inhibition on LB agar plates (direct antibacterial activity). Type of test: cell-based, Escherichia coli. As for the experimental part: Peptides synthesized in Example 1, all carrying at least two (2) but not more than three (3) positive charges, were studied for their ability to inhibit the growth of E. coli. This was tested employing LB agar (LB Agar Lennox, Difco, BD, Sparks, Md., U.S.A) plates. The indicator organism E. coli IH3080 (K1:O18) was an encapsulated strain originally isolated from a neonate suffering from meningitis (Vaara et al. 1984) and obtained from National Public Health Institute, Helsinki, Finland.
as §1
In general terms: A growth-free zone around the sample is the usual read-out of agar diffusion tests.

[3] abbreviates: 4 μg of compound, rifampin 0 μg/ml.
Setting [4] is: 4 μg of compound, rifampin 0.1 μg/ml.
Where [5] appears, read: 4 μg of compound, rifampin 1.0 μg/ml.

Turning to `CO[C@H]1/C=C/O[C@@]2(C)Oc3c(C)c(O)c4c(O)c(c(/C=N/N5CCN(C)CC5)c(O)c4c3C2=O)NC(=O)/C(C)=C\C=C\[C@H](C)[C@H](O)[C@@H](C)[C@@H](O)[C@@H](C)[C@H](OC(C)=O)[C@@H]1C` [rifampin, reference compound], in test [1] (LB plates), the “Concentration of rifampin needed for the inhibitory effect in the absence of the compounds tested” value worked out at 10 µg/mL.

For the molecule Deacylcolistin [reference compound], the “Antibacterial activity in the presence of rifampin (growth inhibition area around a well)” value in test [1] (setting [3]) amounted to 79 square millimeters; in test [1] (setting [4]), 87 square millimeters; in test [1] (setting [5]) it was 127 square millimeters. The “Antibacterial activity (growth inhibition area around a well)” value amounted to 79 square millimeters in test [2] (4 μg of compound per well) and 95 square millimeters in test [2] (10 μg of compound per well).

For the molecule Deacylpolymyxin B [reference compound], the “Antibacterial activity in the presence of rifampin (growth inhibition area around a well)” value is given as 57 square millimeters in test [1] (setting [3]), 79 square millimeters in test [1] (setting [4]) and 127 square millimeters in test [1] (setting [5]). Also, the “Antibacterial activity (growth inhibition area around a well)” value in test [2] (4 μg of compound per well) turned out to be 57 square millimeters; in test [2] (10 μg of compound per well), 113 square millimeters.

“MHA-Abu-Thr-Abu-cy[Dab-Dab-DPhe-Leu-Dab-Dab-Thr-] [NAB 707]”: the “Antibacterial activity in the presence of rifampin (growth inhibition area around a well)” value is listed as 5 square millimeters in test [1] (setting [3]), 87 square millimeters in test [1] (setting [4]) and 113 square millimeters in test [1] (setting [5]). The “Antibacterial activity (growth inhibition area around a well)” value in test [2] (4 μg of compound per well) turned out to be 5 square millimeters; in test [2] (10 μg of compound per well), 7 square millimeters.

On to “MHA-Dab-Thr-Dab-cy[Dab-Dab-DPhe-Leu-Abu-Abu-Thr-] [NAB 721]”, for which the “Antibacterial activity in the presence of rifampin (growth inhibition area around a well)” value was found to be 0 square millimeters in test [1] (setting [3]), 13 square millimeters in test [1] (setting [4]) and 28 square millimeters in test [1] (setting [5]). In addition, the “Antibacterial activity (growth inhibition area around a well)” value in test [2] (4 μg of compound per well) and in test [2] (10 μg of compound per well) was 0 square millimeters throughout.

In the case of “MHA-Thr-Abu-cy[Dab-Dab-DPhe-Leu-Dab-Dab-Thr-] [NAB 706]”, the “Antibacterial activity in the presence of rifampin (growth inhibition area around a well)” value stood at 5 square millimeters in test [1] (setting [3]), 79 square millimeters in test [1] (setting [4]) and 133 square millimeters in test [1] (setting [5]). The “Antibacterial activity (growth inhibition area around a well)” value in test [2] (4 μg of compound per well) was 5 square millimeters; in test [2] (10 μg of compound per well), 7 square millimeters.

For the molecule “OA-Abu-cy[Dab-Dab-DPhe-Leu-Dab-Dab-Thr-] [NAB 713]”, the “Antibacterial activity in the presence of rifampin (growth inhibition area around a well)” value came out at 0 square millimeters in test [1] (setting [3]), 20 square millimeters in test [1] (setting [4]) and 38 square millimeters in test [1] (setting [5]). For the same molecule, the “Antibacterial activity (growth inhibition area around a well)” value in test [2] (4 μg of compound per well) and in test [2] (10 μg of compound per well) was 0 square millimeters each time.

Take “OA-DAla-DAla-cy[Dab-Dab-DPhe-Leu-Dab-Dab-Thr-] [NAB 733]”: the “Antibacterial activity in the presence of rifampin (growth inhibition area around a well)” value in test [1] (setting [3]) turned out to be 0 square millimeters; in test [1] (setting [4]) it was 95 square millimeters; in test [1] (setting [5]) it was 113 square millimeters. Besides, the “Antibacterial activity (growth inhibition area around a well)” value in test [2] (4 μg of compound per well) and in test [2] (10 μg of compound per well) was 0 square millimeters throughout.

As to “OA-Thr-Abu-cy[Dab-Abu-DPhe-Leu-Dab-Dab-Thr-] [NAB 710]”, the “Antibacterial activity in the presence of rifampin (growth inhibition area around a well)” value in test [1] (setting [3]) worked out at 0 square millimeters; in test [1] (setting [4]), 7 square millimeters; in test [1] (setting [5]), 13 square millimeters. Moreover, the “Antibacterial activity (growth inhibition area around a well)” value amounted to 0 square millimeters in test [2] (4 μg of compound per well) and 7 square millimeters in test [2] (10 μg of compound per well).

With “OA-Thr-Abu-cy[Dab-Dab-DPhe-Leu-Dab-Abu-Thr-] [NAB 709]”, the “Antibacterial activity in the presence of rifampin (growth inhibition area around a well)” value in test [1] (setting [3]) came to 0 square millimeters; in test [1] (setting [4]), 0 square millimeters; in test [1] (setting [5]) it was 13 square millimeters. The “Antibacterial activity (growth inhibition area around a well)” value in test [2] (4 μg of compound per well) and in test [2] (10 μg of compound per well) was 0 square millimeters in each case.

Take “OA-Thr-Abu-cy[Dab-Lys-DPhe-Leu-Dab-Dab-Thr-] [NAB 731]”: the “Antibacterial activity in the presence of rifampin (growth inhibition area around a well)” value in test [1] (setting [3]) was found to be 0 square millimeters; in test [1] (setting [4]), 0 square millimeters; in test [1] (setting [5]) it was 5 square millimeters; in test [1] (10 μg of compound, rifampin 1.0 μg/ml) it was 22 square millimeters. Further, the “Antibacterial activity (growth inhibition area around a well)” value in test [2] (4 μg of compound per well) and in test [2] (10 μg of compound per well) was 0 square millimeters throughout.

On to “OA-Thr-Dab-cy[Dab-Abu-DPhe-Leu-Dab-Dab-Thr-] [NAB 715]”, for which the “Antibacterial activity in the presence of rifampin (growth inhibition area around a well)” value in test [1] (setting [3]) was determined as 0 square millimeters; in test [1] (setting [4]) it was 0 square millimeters; in test [1] (setting [5]), 33 square millimeters. For the same molecule, the “Antibacterial activity (growth inhibition area around a well)” value in test [2] (4 μg of compound per well) and in test [2] (10 μg of compound per well) was 0 square millimeters throughout.

As to “Polymyxin B heptapeptide [reference compound]”, the “Antibacterial activity in the presence of rifampin (growth inhibition area around a well)” value was found to be 0 square millimeters in test [1] (setting [3]), 0 square millimeters in test [1] (setting [4]) and 38 square millimeters in test [1] (setting [5]). Also, the “Antibacterial activity (growth inhibition area around a well)” value in test [2] (4 μg of compound per well) and in test [2] (10 μg of compound per well) was 0 square millimeters throughout.

The values are drawn from US9067974B2, “Polymyxin derivatives and uses thereof” (priority 2006, dated 2015).
